Test results from US20090012152A1, “Use of Tetramic Acid Derivatives for Controlling Insects from the Genus of the Plane Lice (Sternorrhyncha)” (Bayer CropScience Aktiengesellschaft, priority 2005, published 2009).

Key:
[1] = test system: Myzus persicae; test: Example 53: plum trees treated against Myzus persicae; assay type: in vivo; settings: population on shoots, g a.i./ha/m crown height: Actara 33.5, I-4 48
Method: In four replications, plum trees of the cultivar “Angeleno” of a height of about 2.8 m are treated against Myzus persicae. The application is carried out using a high-pressure sprayer. Here, the active compound Example (I-4) (100 OD), in the stated amount, is tested against the commercial standard Actara (25 WG), at the stated application rate. The application rate is 500 l of water/ha/crown height in m.
Evaluation is carried out 6, 9, 12, 20 days after the treatment by rating the kill of the population on the shoots.

[2] = test system: Bemisia argentifolii; test: Example 36: aubergine plants (Ryoma) treated against Bemisia argentifolii; assay type: in vivo; settings: nymphs on leaves, % a.i.: pymetrozine 0.0125, I-4 0.072, I-8 0.06
Method: In three replications, in each case four aubergine plants of the cultivar “Ryoma” are treated against Bemisia argentifolii. The application is carried out using a motor-operated knapsack sprayer. Here, the active compounds Example (I-4) and Example (I-8), in a tank mix with 0.2% a.i. of rapeseed oil methyl ester (500 EW), and the commercial standard pymetrozine (25 WP) are tested at the stated application rates. The application rate is 3200 l of water/ha.
Evaluation is carried out 13, 20 and 27 days after the treatment by rating the kill of the nymphs on the leaves.

CCOC(=O)OC1=C(c2cc(C)ccc2C)C(=O)NC12CCC(OC)CC2 (centres unmarked) [Example (I-4)]
Kill (%) 6 d ([1]; 6 d after treatment): 96.4% | Kill (%) 9 d ([1]; 9 d after treatment): 99.7% | Kill (%) 12 d ([1]; 12 d after treatment): 99.8% | Kill (%) 20 d ([1]; 20 d after treatment): 99.9% | Kill (%) 27 d ([1]; 27 d after treatment): 99.9% | Kill (%) 13 d ([2]; 13 d after treatment): 99.6% | Kill (%) 20 d ([2]; 20 d after treatment): 100% | Kill (%) 27 d ([2]; 27 d after treatment): 97%
